# EP0554004A2, “Cephem compounds and antibacterial agents” (KATAYAMA SEIYAKUSYO CO. Ltd., priority 1992, dated 1993)
# Experiments:
# [1] = tested on: clinically isolated MRSA; test: Antibacterial potency against clinically isolated MRSA (Test Example 4); format: cell-based, methicillin-resistant Staphylococcus aureus; settings: Staphylococcus aureus
# Procedure: (§1) 52 strains of clinically isolated MRSA were used, and MIC was determined for each of the strains according to the standard method of the Japan Chemotherapical Society as in Test Example 1. The minimum growth inhibitory concentration which inhibited growth of 50% of the strains tested was expressed as MIC50 (µg/ml), and the minimum growth inhibitory concentration which inhibited growth of 90% of the strains was expressed as MIC90 (µg/ml).
# MIC 50 and MIC 90 were determined for each of the 52 strains of clinically isolated MRSA according to the same method as used in Test Example 2.
# VCM (vancomycin) was used as control agent.
# [2] = tested on: S. aureus 195; test: MIC against standard strains (Test Example 3); format: cell-based; settings: Staphylococcus aureus; S. aureus 195 (MRSA) (Test Example 3); read-out: MIC
# Procedure: (§2) By using each test strain cultured overnight at 37°C in a Muller-Hinton broth, there was prepared a bacterial solution with a bacterial cell population of 1 x 10^6 CFU/mi of the same bouillon. The bacterial solution was inoculated into the Muller-Hinton agar media each containing respectively one test agent and, after overnight incubation at 37°C, the minimum concentration that inhibited growth of the bacteria was determined and shown as MIC also in Table 1.
# (§3) The minimum growth inhibitory concentration was determined for each of the 21 standard strains shown in Table 3, according to the same method as used in Test Example 1.
# (§4) In the test, FMOX (flomoxef), CTM (cefotiam) and CEZ (cefazolin) were used as control agents.
# [3] = tested on: S. aureus Smith; test: MIC against standard strains (Test Example 3); format: cell-based; settings: Staphylococcus aureus; S. aureus Smith (Test Example 3); read-out: MIC
# Procedure: as §2, §3, §4
# [4] = tested on: A. faecalis ATCC3750; test: MIC against standard strains (Test Example 3); format: cell-based; settings: Alcaligenes faecalis; A. faecalis ATCC3750 (Test Example 3); read-out: MIC
# Procedure: as §2, §3, §4
# [5] = tested on: P. vulugaris OX-19; test: MIC against standard strains (Test Example 3); format: cell-based; settings: P. vulugaris OX-19 (Test Example 3); read-out: MIC
# Procedure: as §2, §3, §4
# [6] = tested on: E. cloacae ATCC13407; test: MIC against standard strains (Test Example 3); format: cell-based; settings: Enterobacter cloacae; E. cloacae ATCC13407 (Test Example 3); read-out: MIC
# Procedure: as §2, §3, §4
# [7] = tested on: E. coli CSH2 (RK1); test: MIC against standard strains (Test Example 3); format: cell-based; settings: Escherichia coli
# Procedure: as §2, §3, §4
# [8] = tested on: A. calcoaceticos T59; test: MIC against standard strains (Test Example 3); format: cell-based; settings: A. calcoaceticos T59 (Test Example 3); read-out: MIC
# Procedure: as §2, §3, §4
# [9] = tested on: M. luteus ATCC 9341; test: MIC against standard strains (Test Example 3); format: cell-based; settings: Micrococcus luteus, ATCC9341; M. luteus ATCC 9341 (Test Example 3); read-out: MIC
# Procedure: as §2, §3, §4
# [10] = tested on: K. pneumoniae IFO3317; test: MIC against standard strains (Test Example 3); format: cell-based; settings: Klebsiella pneumoniae; K. pneumoniae IFO3317 (Test Example 3); read-out: MIC
# Procedure: as §2, §3, §4
# [11] = tested on: E. coli NIHJ JC-2; test: MIC against standard strains (Test Example 3); format: cell-based; settings: Escherichia coli, NIHJJC2; E. coli NIHJ JC-2 (Test Example 3); read-out: MIC
# Procedure: as §2, §3, §4
# [12] = tested on: M. Morganii IFO3848; test: MIC against standard strains (Test Example 3); format: cell-based; settings: Morganella morganii; M. Morganii IFO3848 (Test Example 3); read-out: MIC
# Procedure: as §2, §3, §4
# [13] = tested on: E. coli CSH2 (RE45); test: MIC against standard strains (Test Example 3); format: cell-based; settings: Escherichia coli
# Procedure: as §2, §3, §4
# [14] = tested on: P. aeruginosa NCTC10490; test: MIC against standard strains (Test Example 3); format: cell-based; settings: Pseudomonas aeruginosa; P. aeruginosa NCTC10490 (Test Example 3); read-out: MIC
# Procedure: as §2, §3, §4
# [15] = tested on: S. marcescens IAM1184; test: MIC against standard strains (Test Example 3); format: cell-based; settings: Serratia marcescens; S. marcescens IAM1184 (Test Example 3); read-out: MIC
# Procedure: as §2, §3, §4
# [16] = tested on: P. mirabilis IFO3849; test: MIC against standard strains (Test Example 3); format: cell-based; settings: Proteus mirabilis; P. mirabilis IFO3849 (Test Example 3); read-out: MIC
# Procedure: as §2, §3, §4
# [17] = tested on: S. epidemidis IAM1296; test: MIC against standard strains (Test Example 3); format: cell-based; settings: S. epidemidis IAM1296 (Test Example 3); read-out: MIC
# Procedure: as §2, §3, §4
# [18] = tested on: S. aureus 167; test: MIC against standard strains (Test Example 3); format: cell-based; settings: Staphylococcus aureus; S. aureus 167 (MRSA) (Test Example 3); read-out: MIC
# Procedure: as §2, §3, §4
# [19] = tested on: C. freundii ATCC8090; test: MIC against standard strains (Test Example 3); format: cell-based; settings: Citrobacter freundii; C. freundii ATCC8090 (Test Example 3); read-out: MIC
# Procedure: as §2, §3, §4
# [20] = tested on: S. aureus 209p JC-1; test: MIC against standard strains (Test Example 3); format: cell-based; settings: Staphylococcus aureus; S. aureus 209p JC-1 (Test Example 3); read-out: MIC
# Procedure: as §2, §3, §4
# [21] = tested on: B. subtilis ATCC6633; test: MIC against standard strains (Test Example 3); format: cell-based; settings: Bacillus subtilis; B. subtilis ATCC6633 (Test Example 3); read-out: MIC
# Procedure: as §2, §3, §4
# [22] = tested on: K. pneumoniae No. 42; test: MIC against standard strains (Test Example 3); format: cell-based; settings: Klebsiella pneumoniae; K. pneumoniae No. 42 (Test Example 3); read-out: MIC
# Procedure: as §2, §3, §4
# [23] = tested on: clinically isolated MRSA; test: Antibacterial potency against clinically isolated MRSA (Test Example 2); format: cell-based, methicillin-resistant Staphylococcus aureus; settings: Staphylococcus aureus, 52 strains of clinically isolated MRSA; for MIC50: concentration inhibiting growth of 50% of the strains (Test Example 2); for MIC90: concentration inhibiting growth of 90% of the strains (Test Example 2)
# Procedure: A test on the antibacterial potency against clinically isolated MRSA was conducted in the following way.
# as §1
# In this test, FMOX (flomoxef), IPM/CS (imipenem/cilastatin), CMZ (cefmetazole), MINO (minocycline) and DMPPC (methicillin) were used as control agents.
# [24] = 52 strains of clinically isolated MRSA, concentration inhibiting growth of 50% of the strains (Test Example 4), read-out: MIC50
# [25] = 52 strains of clinically isolated MRSA, concentration inhibiting growth of 90% of the strains (Test Example 4), read-out: MIC90
SMILES,MIC [2],MIC [3],MIC [4],MIC [5],MIC [6],MIC [7],MIC [8],MIC [9],MIC [10],MIC [11],MIC [12],MIC [13],MIC [14],MIC [15],MIC [16],MIC [17],MIC [18],MIC [19],MIC [20],MIC [21],further results
"CNC(=O)c1ccc[n+](CC2=C(C(=O)[O-])N3C(=O)[C@@H](NC(=O)/C(=N\O)c4csc(N)n4)[C@H]3SC2)c1 [Compound (6), 7β-[2-(2-aminothiazol-4-I)-2-syn-hydroxyiminoacetamido]-3-[(3-N-methylcarbamoyl)-1-pyridinio)methyl]-3-cephem-4-carboxylic acid chloride]",3.13 µg/mL,0.78 µg/mL,3.13 µg/mL,0.78 µg/mL,1.56 µg/mL,1.56 µg/mL,12.5 µg/mL,0.1 µg/mL,0.39 µg/mL,0.39 µg/mL,0.2 µg/mL,0.78 µg/mL,3.13 µg/mL,0.39 µg/mL,0.39 µg/mL,0.2 µg/mL,12.5 µg/mL,0.39 µg/mL,0.39 µg/mL,0.78 µg/mL,"MIC50 [1, 24]: 2.15 µg/mL; MIC90 [1, 25]: 7.18 µg/mL; MIC [22]: 0.78 µg/mL"
"Nc1nc(/C(=N/O)C(=O)N[C@@H]2C(=O)N3C(C(=O)[O-])=C(C[n+]4cccc(-c5csc(N)n5)c4)CS[C@H]23)cs1 [Compound (9), 7β-[2-(2-aminothiazol-4-yl)-2-syn-hydroxyiminoacetamido]-3-[[3-(2-aminothiazol-4-yl)-1-pyridinio]methyl]-3-cephem-4-carboxylic acid chloride]",1.56 µg/mL,0.2 µg/mL,1.56 µg/mL,0.2 µg/mL,0.78 µg/mL,0.39 µg/mL,12.5 µg/mL,0.05 µg/mL,0.2 µg/mL,0.2 µg/mL,0.1 µg/mL,0.39 µg/mL,3.13 µg/mL,0.39 µg/mL,0.39 µg/mL,0.05 µg/mL,3.13 µg/mL,0.2 µg/mL,0.2 µg/mL,0.2 µg/mL,"MIC50 [1, 24]: 1.48 µg/mL; MIC90 [1, 25]: 2.92 µg/mL; MIC [22]: 0.78 µg/mL"
"Cc1nc(-c2ccc[n+](CC3=C(C(=O)[O-])N4C(=O)[C@@H](NC(=O)/C(=N\O)c5csc(N)n5)[C@H]4SC3)c2)cs1 [Compound (11), 7β-[2-(2-aminothiazol-4-yl)-2-syn-hydroxyiminoacetamido]-3-[[3-(2-methylthiazol-4-yl)-I-pyridinio]methyl]-3-cephem-4-carboxylic acid chloride]",1.56 µg/mL,0.39 µg/mL,3.13 µg/mL,0.2 µg/mL,3.13 µg/mL,0.78 µg/mL,25 µg/mL,0.05 µg/mL,0.2 µg/mL,0.39 µg/mL,0.1 µg/mL,0.39 µg/mL,6.25 µg/mL,0.39 µg/mL,0.78 µg/mL,0.1 µg/mL,3.13 µg/mL,0.39 µg/mL,0.2 µg/mL,0.2 µg/mL,"MIC50 [1, 24]: 1.85 µg/mL; MIC90 [1, 25]: 3.04 µg/mL; MIC [22]: 0.78 µg/mL"
"Cc1nc(-c2cc[n+](CC3=C(C(=O)[O-])N4C(=O)[C@@H](NC(=O)/C(=N\O)c5csc(N)n5)[C@H]4SC3)cc2)cs1 [Compound (13), 7β-[2-(2-aminothiazol-4-yl)-2-syn-hydroxyiminoacetamido]-3-[[4-(2-methylthiazol-4-yl)-1-pyridinio]methyl]-3-cephem-4-carboxylic acid chloride]",3.13 µg/mL,0.39 µg/mL,1.56 µg/mL,0.2 µg/mL,0.78 µg/mL,0.2 µg/mL,50 µg/mL,0.05 µg/mL,0.1 µg/mL,0.2 µg/mL,0.05 µg/mL,0.2 µg/mL,12.5 µg/mL,0.39 µg/mL,0.39 µg/mL,0.2 µg/mL,6.25 µg/mL,0.2 µg/mL,0.2 µg/mL,0.2 µg/mL,"MIC50 [1, 24]: 2.21 µg/mL; MIC90 [1, 25]: 5.51 µg/mL; MIC [22]: 0.78 µg/mL"
"CN[C@H](CC(C)C)C(=O)N[C@H]1C(=O)N[C@@H](CC(N)=O)C(=O)N[C@H]2C(=O)N[C@H]3C(=O)N[C@H](C(=O)N[C@H](C(=O)O)c4cc(O)cc(O)c4-c4cc3ccc4O)[C@H](O)c3ccc(c(Cl)c3)Oc3cc2cc(c3O[C@@H]2O[C@H](CO)[C@@H](O)[C@H](O)[C@H]2O[C@H]2C[C@](C)(N)[C@H](O)[C@H](C)O2)Oc2ccc(cc2Cl)[C@H]1O [VCM, vancomycin, reference compound]",–,–,–,–,–,–,–,–,–,–,–,–,–,–,–,–,–,–,–,–,MIC50 ([1]; MRSA): 0.74 µg/mL; MIC90 ([1]; MRSA): 1.38 µg/mL
"CO[C@@]1(NC(=O)CSCC#N)C(=O)N2C(C(=O)O)=C(CSc3nnnn3C)CS[C@@H]21 [CMZ, cefmetazole, reference compound]",–,–,–,–,–,–,–,–,–,–,–,–,–,–,–,–,–,–,–,–,MIC50 [23]: 16.8 µg/mL; MIC90 [23]: 49.8 µg/mL
"CN(C)c1ccc(O)c2c1C[C@H]1C[C@H]3[C@H](N(C)C)C(O)=C(C(N)=O)C(=O)[C@@]3(O)C(O)=C1C2=O [MINO, minocycline, reference compound]",–,–,–,–,–,–,–,–,–,–,–,–,–,–,–,–,–,–,–,–,MIC50 [23]: 0.2 µg/mL; MIC90 [23]: 1.5 µg/mL
"Cc1nnc(SCC2=C(C(=O)O)N3C(=O)[C@@H](NC(=O)Cn4cnnn4)[C@H]3SC2)s1 [CEZ, cefazolin, reference compound]",50 µg/mL,0.2 µg/mL,12.5 µg/mL,12.5 µg/mL,> 100 µg/mL,3.13 µg/mL,> 100 µg/mL,0.78 µg/mL,0.78 µg/mL,1.56 µg/mL,25 µg/mL,1.56 µg/mL,> 100 µg/mL,> 100 µg/mL,6.25 µg/mL,0.1 µg/mL,100 µg/mL,3.13 µg/mL,0.2 µg/mL,0.2 µg/mL,MIC [22]: 3.13 µg/mL
"COc1cccc(OC)c1C(=O)N[C@@H]1C(=O)N2[C@@H]1SC(C)(C)[C@@H]2C(=O)O [DMPPC, methicillin, reference compound]",–,–,–,–,–,–,–,–,–,–,–,–,–,–,–,–,–,–,–,–,MIC50 [23]: 42.5 µg/mL; MIC90 [23]: > 100 µg/mL
